Format in all cases: cell-based
In test [1] the target is HER2 (A775_G776insYVMA) expressing Ba/F3 stable cell line (Homo sapiens, UniProt P04626, DUP772-775, cells depend on it). In words: Cellular proliferation (Alamar Blue) assay, HER2 A775_G776insYVMA Ba/F3. As to conditions: 72 hr, read-out: YVMA IC50. The procedure:
• 1. EGFR(D770_N771insSVD) expressing Ba/F3 stable cell line • 2. EGFR (A767_dupASV) expressing Ba/F3 stable cell line • 3. A431 cells • 4. EGFR (H773insNPH) expressing Ba/F3 stable cell line • 5. HER2 (A775_G776insYVMA) expressing Ba/F3 stable cell line Assay Procedure: • 1. Seed cells at 5000 for A431 and 15,000 cells for Ba/F3 in 100 μL/well in complete media (for A431: DMEM with […] and for Ba/F3 cells: RPMI with 10% FBS) in 96-well tissue culture plate. Leave outer wells without cells for background measurements. Incubate at 37 degree Celsius in […] humidified incubator for 16-18 hours. • 2. Add 0.025 ml of 5× concentration compound dilution or DMSO control. Final compound concentration range is 10-0.0005 μM prepared in 3-fold serial dilutions. Incubate for 72 hr at 37 degree Celsius in […] humidified incubator. • 3. Add 0.0125 ml Alamar Blue™ reagent to each well with multi-channel pipette and tap gently on each side of the plate to mix. Incubate for 3 hours at 37 degree Celsius in 5% CO2 humidified incubator. • 4. […] Data analysis was performed using XLfit 5.5.0.5.
For orientation: The colour change of resazurin is a common sign of viable cells or microbes.

The target in test [2] is EGFR (A767_dupASV) expressing Ba/F3 stable cell line (Homo sapiens, UniProt P00533, DUP767-769, cells depend on it). In words: Cellular proliferation (Alamar Blue) assay, EGFR A767_dupASV Ba/F3. The settings on record: 72 hr, read-out: A767 IC50. A digest of the protocol: (§1)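 Alamar Blue read-out, 3 h at 37 °C, after 72 hr compound exposure of Ba/F3 transfectants (15,000 cells/well, RPMI + 10% FBS, plated 16-18 h earlier).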

Another test relates to A431 cells. In words: Cellular proliferation (Alamar Blue) assay, A431. The settings on record: Homo sapiens, A-431; A431 cells, Alamar Blue, 72 hr; read-out: A431 IC50.
The target in test [3] is EGFR(D770_N771insSVD) expressing Ba/F3 stable cell line (Homo sapiens, UniProt P00533, DUP768-770, cells depend on it). In words: Cellular proliferation (Alamar Blue) assay, EGFR D770_N771insSVD Ba/F3. The settings on record: 72 hr, read-out: D770 IC50. The procedure, abridged:
as §1

Where a name gives a salt, the structure may show the parent alone.

Sequence of EGFR (A767_dupASV) expressing Ba/F3 stable cell line (P00533 with tags, fused parts or gaps DUP767-769): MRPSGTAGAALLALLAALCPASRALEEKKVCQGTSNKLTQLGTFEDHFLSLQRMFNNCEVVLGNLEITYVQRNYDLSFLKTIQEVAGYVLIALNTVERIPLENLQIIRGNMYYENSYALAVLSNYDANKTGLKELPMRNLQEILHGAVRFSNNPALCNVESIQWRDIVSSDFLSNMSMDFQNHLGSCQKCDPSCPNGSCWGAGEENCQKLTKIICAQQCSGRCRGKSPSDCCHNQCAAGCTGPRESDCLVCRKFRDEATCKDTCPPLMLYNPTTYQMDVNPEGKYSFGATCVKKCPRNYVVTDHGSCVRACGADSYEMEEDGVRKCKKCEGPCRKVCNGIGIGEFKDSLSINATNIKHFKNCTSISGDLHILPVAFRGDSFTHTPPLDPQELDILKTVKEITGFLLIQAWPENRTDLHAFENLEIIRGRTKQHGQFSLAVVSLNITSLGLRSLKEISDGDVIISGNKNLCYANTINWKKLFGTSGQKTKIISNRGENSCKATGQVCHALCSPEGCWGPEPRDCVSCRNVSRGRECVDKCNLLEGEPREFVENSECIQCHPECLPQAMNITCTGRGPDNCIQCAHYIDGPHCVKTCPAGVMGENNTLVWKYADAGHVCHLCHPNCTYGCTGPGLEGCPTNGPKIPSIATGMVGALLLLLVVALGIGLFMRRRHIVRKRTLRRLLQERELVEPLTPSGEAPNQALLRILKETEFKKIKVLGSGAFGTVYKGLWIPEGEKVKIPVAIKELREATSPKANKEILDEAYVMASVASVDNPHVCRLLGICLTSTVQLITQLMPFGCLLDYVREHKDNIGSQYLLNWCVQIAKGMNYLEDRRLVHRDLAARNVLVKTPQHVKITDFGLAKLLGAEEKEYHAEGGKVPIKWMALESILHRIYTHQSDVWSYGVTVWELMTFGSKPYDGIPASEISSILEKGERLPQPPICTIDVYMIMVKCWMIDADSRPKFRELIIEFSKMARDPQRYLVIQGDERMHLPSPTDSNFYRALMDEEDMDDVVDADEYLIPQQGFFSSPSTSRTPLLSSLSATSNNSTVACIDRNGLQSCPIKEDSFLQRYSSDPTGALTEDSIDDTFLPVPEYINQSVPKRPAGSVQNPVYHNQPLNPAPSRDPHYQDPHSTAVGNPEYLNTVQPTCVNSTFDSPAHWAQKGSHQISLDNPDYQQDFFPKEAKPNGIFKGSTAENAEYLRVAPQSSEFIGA
Sequence of EGFR(D770_N771insSVD) expressing Ba/F3 stable cell line (P00533 with tags, fused parts or gaps DUP768-770): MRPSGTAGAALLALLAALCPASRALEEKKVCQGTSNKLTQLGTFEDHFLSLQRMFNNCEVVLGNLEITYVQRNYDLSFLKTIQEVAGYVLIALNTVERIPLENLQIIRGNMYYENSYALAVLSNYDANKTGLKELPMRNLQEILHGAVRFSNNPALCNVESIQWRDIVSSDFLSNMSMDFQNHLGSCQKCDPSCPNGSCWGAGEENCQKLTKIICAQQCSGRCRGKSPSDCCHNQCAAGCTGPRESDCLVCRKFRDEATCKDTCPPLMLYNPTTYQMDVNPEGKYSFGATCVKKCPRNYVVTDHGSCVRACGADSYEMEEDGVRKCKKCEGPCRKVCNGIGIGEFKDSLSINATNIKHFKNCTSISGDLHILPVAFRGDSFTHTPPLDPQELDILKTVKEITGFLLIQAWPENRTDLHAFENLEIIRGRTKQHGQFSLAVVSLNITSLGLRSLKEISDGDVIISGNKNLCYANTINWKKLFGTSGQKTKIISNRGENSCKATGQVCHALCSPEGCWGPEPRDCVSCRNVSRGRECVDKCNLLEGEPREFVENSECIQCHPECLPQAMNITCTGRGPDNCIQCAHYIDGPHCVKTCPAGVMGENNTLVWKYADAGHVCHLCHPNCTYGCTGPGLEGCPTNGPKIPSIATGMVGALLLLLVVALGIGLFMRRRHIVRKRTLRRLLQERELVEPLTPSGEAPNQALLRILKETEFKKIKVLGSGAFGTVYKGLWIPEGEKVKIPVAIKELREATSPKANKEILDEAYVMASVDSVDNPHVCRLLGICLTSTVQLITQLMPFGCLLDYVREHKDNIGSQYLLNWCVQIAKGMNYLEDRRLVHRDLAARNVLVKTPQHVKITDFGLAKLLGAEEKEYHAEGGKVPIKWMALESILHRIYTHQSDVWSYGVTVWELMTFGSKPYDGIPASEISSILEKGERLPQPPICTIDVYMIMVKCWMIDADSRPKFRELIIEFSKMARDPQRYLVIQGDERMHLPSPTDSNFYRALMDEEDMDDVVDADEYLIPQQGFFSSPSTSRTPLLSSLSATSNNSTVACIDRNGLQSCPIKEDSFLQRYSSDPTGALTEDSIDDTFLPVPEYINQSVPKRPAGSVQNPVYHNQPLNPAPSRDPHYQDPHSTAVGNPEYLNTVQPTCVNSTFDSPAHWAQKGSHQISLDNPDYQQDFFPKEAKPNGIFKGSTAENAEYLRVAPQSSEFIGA
Sequence of HER2 (A775_G776insYVMA) expressing Ba/F3 stable cell line (P04626 with tags, fused parts or gaps DUP772-775): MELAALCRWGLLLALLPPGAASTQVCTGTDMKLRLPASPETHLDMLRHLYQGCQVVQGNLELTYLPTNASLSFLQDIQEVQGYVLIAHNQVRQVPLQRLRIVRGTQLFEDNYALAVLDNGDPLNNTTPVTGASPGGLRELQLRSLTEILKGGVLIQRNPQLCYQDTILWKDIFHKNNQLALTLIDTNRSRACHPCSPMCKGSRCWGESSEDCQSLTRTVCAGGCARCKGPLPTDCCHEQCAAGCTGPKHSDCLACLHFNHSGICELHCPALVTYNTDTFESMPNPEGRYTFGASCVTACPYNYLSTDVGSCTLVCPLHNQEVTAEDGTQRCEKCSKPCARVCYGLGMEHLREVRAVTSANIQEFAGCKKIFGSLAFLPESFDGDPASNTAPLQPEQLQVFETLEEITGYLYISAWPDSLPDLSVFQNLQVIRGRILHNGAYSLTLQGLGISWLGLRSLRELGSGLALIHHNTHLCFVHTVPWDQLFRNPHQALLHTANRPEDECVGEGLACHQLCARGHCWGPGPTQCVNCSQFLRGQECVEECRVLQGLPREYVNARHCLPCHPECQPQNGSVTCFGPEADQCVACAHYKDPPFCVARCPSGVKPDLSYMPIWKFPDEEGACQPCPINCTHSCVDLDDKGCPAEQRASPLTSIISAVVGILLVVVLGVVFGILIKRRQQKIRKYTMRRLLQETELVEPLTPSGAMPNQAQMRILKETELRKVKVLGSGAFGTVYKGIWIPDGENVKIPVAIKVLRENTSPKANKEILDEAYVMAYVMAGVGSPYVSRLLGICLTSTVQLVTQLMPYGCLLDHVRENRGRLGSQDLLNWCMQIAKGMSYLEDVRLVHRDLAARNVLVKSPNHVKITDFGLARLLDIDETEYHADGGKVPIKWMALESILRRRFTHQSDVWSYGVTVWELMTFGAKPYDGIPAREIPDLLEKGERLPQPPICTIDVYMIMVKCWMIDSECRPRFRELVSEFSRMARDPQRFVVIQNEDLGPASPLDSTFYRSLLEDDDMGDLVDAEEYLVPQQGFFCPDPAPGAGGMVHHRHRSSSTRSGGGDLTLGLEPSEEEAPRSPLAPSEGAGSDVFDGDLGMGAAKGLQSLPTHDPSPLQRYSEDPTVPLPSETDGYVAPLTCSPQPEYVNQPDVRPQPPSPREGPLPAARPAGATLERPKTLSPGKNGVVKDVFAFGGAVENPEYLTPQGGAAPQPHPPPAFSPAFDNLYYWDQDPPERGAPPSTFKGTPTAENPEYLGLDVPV

As a reminder, the IC50 is the concentration that inhibits the measured activity by half. `C=CC(=O)Nc1ccc(F)c(Nc2nc(Nc3ccn(C)n3)ncc2Cl)c1` [Compound 30, N-(3-((5-chloro-2-((1-methyl-1H-pyrazol-3-yl)amino)pyrimidin-4-yl)amino)-4-fluorophenyl)acrylamide]: the GI50 was 2640 nM in test [1], 9630 nM in test [2] and over 10000 nM in test [3]. Moreover, in the test with A431 cells, the IC50 is over 10000 nM.
For the compound `C=CC(=O)Nc1ccc(F)c(Nc2nc(Nc3ccnn3C)ncc2Cl)c1` [Compound 31, N-(3-((5-chloro-2-((1-methyl-1H-pyrazol-5-yl)amino)pyrimidin-4-yl)amino)-4-fluorophenyl)acrylamide], the GI50 in test [1] was determined as 5180 nM; in test [2], 9870 nM; in test [3] it was 9960 nM. For the same compound, the IC50 in the test with A431 cells amounted to 9800 nM.
With `C=CC(=O)Nc1cccc(Nc2nc(Nc3cnn(C)c3)ncc2NCc2ccccc2)c1` [Compound 32, N-(3-((5-(benzylamino)-2-((1-methyl-1H-pyrazol-4-yl)amino)pyrimidin-4-yl)amino)phenyl)acrylamide], the GI50 was determined as 1610 nM in test [1], 885 nM in test [2] and 824 nM in test [3]. The IC50 in the test on A431 cells is over 10000 nM.
Regarding `CN(C)C/C=C/C(=O)Nc1cccc(Nc2nc(Nc3cnn(C)c3)ncc2NCc2ccccc2)c1` [Compound 33, (E)-N-(3-((5-(benzylamino)-2-((1-methyl-1H-pyrazol-4-yl)amino)pyrimidin-4-yl)amino)phenyl)-4-(dimethylamino)but-2-enamide], the GI50 in test [1] amounted to 3030 nM; in test [2], 4070 nM; in test [3], 2980 nM. The IC50 in the test with A431 cells amounted to 4010 nM.
For `CC(NC(=O)c1cnc(Nc2cnn(C)c2)nc1Nc1cccc(NC(=O)/C=C/CN(C)C)c1)c1ccccc1` (stereo not shown) [Compound 35, (E)-4-((3-(4-(dimethylamino)but-2-enamido)phenyl)amino)-2-((1-methyl-1H-pyrazol-4-yl)amino)-N-(1-phenylethyl)pyrimidine-5-carboxamide], in that order: over 10000 nM, over 10000 nM, over 10000 nM and over 10000 nM.
For `C=CC(=O)Nc1ccc(F)c(Nc2nc(Nc3cnn(C)c3)ncc2C(F)(F)F)c1` [Compound 36, N-(4-fluoro-3-((2-((1-methyl-1H-pyrazol-4-yl)amino)-5-(trifluoromethyl)pyrimidin-4-yl)amino)phenyl)acrylamide], in that order: 416 nM, 332 nM, 357 nM and 8150 nM.
Take `C=CC(=O)Nc1cccc(Nc2nc(Nc3cnn(C)c3)ncc2C(C)N(Cc2ccccc2)C(C)=O)c1` (stereo not shown) [Compound 47, N-(3-((5-(1-(N-benzylacetamido)ethyl)-2-((1-methyl-1H-pyrazol-4-yl)amino)pyrimidin-4-yl)amino)phenyl)acrylamide]: the GI50 in test [1] was over 10000 nM; in test [2], 7080 nM; in test [3], 8850 nM. In the test on A431 cells, the IC50 was over 10000 nM.
As to `C=CC(=O)Nc1cccc(Nc2nc(Nc3cnn(C)c3)ncc2CN(Cc2ccccc2)C(C)=O)c1` [Compound 48, N-(3-((5-((N-benzylacetamido)methyl)-2-((1-methyl-1H-pyrazol-4-yl)amino)pyrimidin-4-yl)amino)phenyl)acrylamide], the GI50 in test [1] is over 10000 nM; in test [2] it was over 10000 nM; in test [3] it was 8800 nM. In addition, in the test on A431 cells, the IC50 was over 10000 nM.
Regarding `C=CC(=O)Nc1ccc(F)c(Nc2nc(Nc3cnn(C)c3)ncc2NC(=O)c2ccccc2)c1` [Compound 50, N-(4-((5-acrylamido-2-fluorophenyl)amino)-2-((1-methyl-1H-pyrazol-4-yl)amino)pyrimidin-5-yl)benzamide], the GI50 in test [1] was 8620 nM; in test [2] it was 1470 nM; in test [3], 1730 nM. Besides, the IC50 in the test on A431 cells was over 10000 nM.
Take `C=CC(=O)Nc1ccc(F)c(Nc2nc(Nc3cnn(C)c3)ncc2NS(=O)(=O)c2ccccc2)c1` [Compound 51, N-(4-fluoro-3-((2-((1-methyl-1H-pyrazol-4-yl)amino)-5-(phenylsulfonamido)pyrimidin-4-yl)amino)phenyl)acrylamide]: the GI50 in test [1], in test [2] and in test [3] was over 10000 nM in each case. Moreover, in the test with A431 cells, the IC50 is over 10000 nM.
Consider `C=CC(=O)Nc1ccc(F)c(Nc2nc(Nc3cnn(C)c3)ncc2-c2ccc(N3CCOCC3)nc2)c1` [Compound 55, N-[4-fluoro-3-({2-[(1-methyl-1H-pyrazol-4-yl)amino]-5-[6-(morpholin-4-yl)pyridin-3-yl]pyrimidin-4-yl}amino)phenyl] prop-2-enamide], for which the GI50 in test [1] worked out at 1870 nM; in test [2] it was 492 nM; in test [3], 945 nM. Further, the IC50 in the test with A431 cells was over 10000 nM.
For `C=CC(=O)Nc1ccc(F)c(Nc2nc(Nc3cnn(C)c3)ncc2-c2cccc(NC(C)=O)c2)c1` [Compound 59, N-(3-((5-(3-acetamidophenyl)-2-((1-methyl-1H-pyrazol-4-yl)amino)pyrimidin-4-yl)amino)-4-fluorophenyl)acrylamide], in that order: at least 10000 nM, over 10000 nM, over 10000 nM and over 10000 nM.
As for `C=CC(=O)Nc1ccc(F)c(Nc2nc(Nc3cnn(C)c3)ncc2-c2cccc(C(=O)NC)c2)c1` [Compound 60, 3-(4-((5-acrylamido-2-fluorophenyl)amino)-2-((1-methyl-1H-pyrazol-4-yl)amino)pyrimidin-5-yl)-N-methylbenzamide], the GI50 is 6580 nM in test [1], 7650 nM in test [2] and 7940 nM in test [3]. Besides, in the test on A431 cells, the IC50 is over 10000 nM.
For the compound `C=CC(=O)Nc1ccc(F)c(Nc2nc(Nc3cnn(C)c3)ncc2-c2ccc(C#N)cc2)c1` [Compound 62, N-(3-((5-(4-cyanophenyl)-2-((1-methyl-1H-pyrazol-4-yl)amino)pyrimidin-4-yl)amino)-4-fluorophenyl)acrylamide], the figures for the GI50 in test [1], in test [2] and in test [3] were 2590 nM, 307 nM and 323 nM, respectively. Moreover, the IC50 with A431 cells was over 10000 nM.
For `C=CC(=O)Nc1ccc(F)c(Nc2nc(Nc3cnn(C)c3)ncc2-c2ccc(C(C)(C)C)cc2)c1` [Compound 76, N-(3-((5-(4-(tert-butyl)phenyl)-2-((1-methyl-1H-pyrazol-4-yl)amino)pyrimidin-4-yl)amino)-4-fluorophenyl)acrylamide trifluoroacetate], in that order: 3150 nM, 308 nM, 265 nM and 156 nM.
Take `C=CC(=O)Nc1ccc(F)c(Nc2nc(Nc3cnn(C)c3)ncc2-c2ccc3c(ccn3C)c2)c1` [Compound 77, N-(4-fluoro-3-((5-(1-methyl-1H-indol-5-yl)-2-((1-methyl-1H-pyrazol-4-yl)amino)pyrimidin-4-yl)amino)phenyl)acrylamide trifluoroacetate]: the results for the GI50 in test [1], in test [2] and in test [3] were 2750 nM, 774 nM and 299 nM, respectively. Moreover, the IC50 with A431 cells was found to be 1030 nM.
For the compound `C=CC(=O)Nc1ccc(F)c(Nc2nc(Nc3cnn(C)c3)ncc2-c2cccnc2OC)c1` [Compound 79, N-(4-fluoro-3-((5-(2-methoxypyridin-3-yl)-2-((1-methyl-1H-pyrazol-4-yl)amino)pyrimidin-4-yl)amino)phenyl)acrylamide], the GI50 in test [1] was 896 nM; in test [2], 887 nM; in test [3], 934 nM. Further, the IC50 in the test with A431 cells was over 10000 nM.
Take `C=CC(=O)Nc1ccc(F)c(Nc2nc(Nc3cnn(C)c3)ncc2-c2ccc(OC)nc2)c1` [Compound 86, N-(4-fluoro-3-((5-(6-methoxypyridin-3-yl)-2-((1-methyl-1H-pyrazol-4-yl)amino)pyrimidin-4-yl)amino)phenyl)acrylamide]: the GI50 was 185 nM in test [1], 39 nM in test [2] and 36 nM in test [3]. In addition, in the test on A431 cells, the IC50 came out at 49 nM.
With `C=CC(=O)Nc1ccc(F)c(Nc2nc(Nc3cnn(C)c3)ncc2-c2cccc(OC(F)(F)F)c2)c1` [Compound 96, N-(4-fluoro-3-((2-((1-methyl-1H-pyrazol-4-yl)amino)-5-(3-(trifluoromethoxy)phenyl)pyrimidin-4-yl)amino)phenyl)acrylamide trifluoroacetate], the GI50 in test [1] stood at 7730 nM; in test [2], 790 nM; in test [3] it was 345 nM. In the test on A431 cells, the IC50 was 1080 nM.

These data come from patent US12686673B2 (Blueprint Medicines Corporation, priority 2020, dated 2026).
